Data published in the SangsterLogP compilation.

Test: method code SF-GLC, from DOI: 10.1007/bf00316585, PMID: 6732504

SMILES	logP
CCCCCC#N	1.66
C=C(C)C#N	0.68
CC(C)CCC#N	1.54
CCCCCCCC#N	2.75
CCCC#N	0.53
N#CCCO	-0.94
N#CCCCl	0.18
CC(C)C#N	0.46
N#CCCl	0.23
CCCCCCCCC#N	3.12
C=CCC#N	0.4
N#CCCCCl	0.56
